# Results published in US11572402B2, “Method for promoting diversification of antibody variable region” (Chiome Bioscience Inc., priority 2017, dated 2023).
# System: CL18_M− cell line
# Experiment: Light chain gene conversion (GC) analysis according to Reversion assay
# Format: cell-based, chicken
# Settings: one and two weeks of culture, PI3Kα Inhibitor 2 at 200 nM, versus CAL-101, CZC 24832, AS 604850 and CS(−)
# Method: A frozen stock of the CL18_M− cell line (3.0×10^6 cells) was awaken with 10 mL of CS(−) medium, using a 25 cm^2 Flask, and the cells were then cultured in a CO2 incubator (39.5° C., 5% CO2). On the following day, 2 mL each of a CS(−) medium, to which each drug had been added, was added into each well of a 24 deep well plate (ThermoFisher Scientific, 95040480), and the cells were then seeded thereon to a cell density of 6.0×10^4 cells/mL (wherein the cell concentration and the survival rate were measured using CASY cell counter). After individual samples had been cultured for 2 days, the samples were subcultured under the same conditions to result in a cell density of 1.0×10^4 cells/mL. […] Thereafter, a plot, in which the vertical axis indicated FITC (Goat anti-Chicken IgM Antibody FITC Conjugated) and the longitudinal axis indicated PE (none), was developed, and the percentage of PE-_FITC+(cIgM+) cells was then calculated.
# Meanwhile, after completion of the culture for 7 days, individual samples were subcultured under the same conditions to result in a cell density of 6.0×10^4 cells/mL. […] At the time point of Day 14 of the culture, individual samples were measured using FACS Canto II Flow Cytometer, as with the measurement on Day 7. […]
smiles,measurement,value
Cc1nc(NC(=O)N2CCC[C@H]2C(N)=O)sc1-c1csc(C(C)(C)C)n1 [A66],Reversion activity (percentage of IgM expression-positive cells),higher Reversion activity
